According to US12617797B2, “Substituted pyrazolo [1,5-a]pyrimidines having multimodal activity against pain” (ESTEVE PHARMACEUTICALS, S.A., priority 2020, dated 2026):

Assays:
[1] = target: Human α2δ-1 subunit of Cav2.2 calcium channel (Homo sapiens, UniProt P54289); assay: Human α2δ-1 subunit of Cav2.2 calcium channel assay ([3H]-gabapentin binding); conditions: binding to the α2δ-1 subunit of voltage-gated calcium channels expressed as Ki; + also covers inhibition between 1% and 50%
How it was run: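 Membranes enriched in human α2δ-1 incubated with 15 nM [3H]-gabapentin in 10 mM Hepes-KOH pH 7.4, 60 min at 27 °C; nonspecific binding defined with 10 μM pregabalin. Filtration and scintillation counting; % inhibition at 1 or 10 μM, or Ki from five concentrations.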

Human σ1 receptor = target: T1, Human σ1 receptor (Homo sapiens, UniProt Q99720); assay: Human σ1 receptor radioligand assay ([3H](+)-pentazocine binding, transfected HEK-293 membranes); conditions: binding to σ1 receptor expressed as Ki; + also covers inhibition between 1% and 50%; read-out: σ-1 binding
T1 construct: expressed in transfected cells; host or cells: HEK-293
T1 sequence (Q99720 whole entry): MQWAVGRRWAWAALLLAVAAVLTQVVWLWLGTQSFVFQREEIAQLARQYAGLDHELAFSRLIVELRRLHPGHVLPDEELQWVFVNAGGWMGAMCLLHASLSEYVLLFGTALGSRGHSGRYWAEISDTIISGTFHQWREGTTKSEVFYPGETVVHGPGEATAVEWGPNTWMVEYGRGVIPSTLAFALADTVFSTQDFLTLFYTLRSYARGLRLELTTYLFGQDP
How it was run: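 Membranes (7 μg) were incubated with 5 nM [3H](+)-pentazocine in 50 mM Tris-HCl pH 8 for 120 min at 37° C. Non-specific binding was defined with 10 μM haloperidol. Values are % inhibition at 1 or 10 μM or Ki from five concentrations, read by filtration and scintillation counting.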

Sequence of Human α2δ-1 subunit of Cav2.2 calcium channel (P54289 25-1103): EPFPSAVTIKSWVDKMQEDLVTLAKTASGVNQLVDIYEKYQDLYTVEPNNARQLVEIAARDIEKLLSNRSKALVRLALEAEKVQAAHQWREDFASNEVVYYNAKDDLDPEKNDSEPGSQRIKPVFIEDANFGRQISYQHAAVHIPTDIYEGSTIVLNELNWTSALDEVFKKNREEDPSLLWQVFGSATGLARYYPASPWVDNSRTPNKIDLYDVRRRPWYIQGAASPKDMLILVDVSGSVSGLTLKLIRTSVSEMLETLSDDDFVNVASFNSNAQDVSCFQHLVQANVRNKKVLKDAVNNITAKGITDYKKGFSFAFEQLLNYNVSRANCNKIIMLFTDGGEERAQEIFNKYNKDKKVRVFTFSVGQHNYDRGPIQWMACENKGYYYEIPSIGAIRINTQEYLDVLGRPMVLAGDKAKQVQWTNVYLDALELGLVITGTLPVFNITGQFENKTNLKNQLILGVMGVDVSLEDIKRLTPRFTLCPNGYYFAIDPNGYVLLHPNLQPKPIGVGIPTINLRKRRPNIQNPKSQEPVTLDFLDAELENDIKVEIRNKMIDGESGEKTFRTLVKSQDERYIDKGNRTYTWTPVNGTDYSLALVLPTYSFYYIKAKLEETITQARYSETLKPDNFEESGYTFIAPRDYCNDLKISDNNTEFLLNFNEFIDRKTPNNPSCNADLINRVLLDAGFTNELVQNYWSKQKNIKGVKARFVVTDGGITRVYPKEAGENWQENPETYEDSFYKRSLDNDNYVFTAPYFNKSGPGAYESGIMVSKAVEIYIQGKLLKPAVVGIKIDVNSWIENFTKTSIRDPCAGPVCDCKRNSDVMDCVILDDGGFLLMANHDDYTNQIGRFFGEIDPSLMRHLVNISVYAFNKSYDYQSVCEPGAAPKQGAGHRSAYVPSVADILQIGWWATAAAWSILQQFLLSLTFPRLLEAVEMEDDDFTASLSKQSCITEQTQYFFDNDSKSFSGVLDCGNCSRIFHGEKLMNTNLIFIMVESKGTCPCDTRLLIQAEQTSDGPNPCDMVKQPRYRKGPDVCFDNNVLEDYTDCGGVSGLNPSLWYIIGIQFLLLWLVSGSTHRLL

SMILES	Ki [1]	Ki (Human σ1 receptor)
Cc1nn2c(C3CCCN(Cc4ccccc4)C3)ccnc2c1CNCC1C[C@@H](C)O[C@@H](C)C1 (stereo partly drawn) [Example 220, 1-(7-(1-Benzylpiperidin-3-yl)-2-methylpyrazolo[1,5-a]pyrimidin-3-yl)-N-(((2R,6S)-2,6-dimethyltetrahydro-2H-pyran-4-yl)methyl)methanamine]	500 to 5000 nM	500 to 1000 nM
Cc1nn2c([C@@H]3CCCN(Cc4ccc(Cl)cc4)C3)ccnc2c1CNC[C@H]1CCOC(C)(C)C1 [Example 222]	> 5000 nM	< 500 nM
Cc1nn2c([C@H]3CCCN(Cc4ccc(Cl)cc4)C3)ccnc2c1CNC[C@@H]1CCOC(C)(C)C1 [Example 223]	> 5000 nM	< 500 nM
Cc1nn2c([C@@H]3CCCN(Cc4ccc(Cl)cc4)C3)ccnc2c1CN[C@@H](C)C1CCOCC1 [Example 225, (S)—N-((7-((R)-1-(4-chlorobenzyl)piperidin-3-yl)-2-methylpyrazolo[1,5-a]pyrimidin-3-yl)methyl)-1-(tetrahydro-2H-pyran-4-yl)ethan-1-amine]	> 5000 nM	< 500 nM
Cc1nn2c([C@H]3CCCN(Cc4ccc(Cl)cc4)C3)ccnc2c1CN[C@H](C)C1CCOCC1 [Example 226, (R)—N-((7-((S)-1-(4-chlorobenzyl)piperidin-3-yl)-2-methylpyrazolo[1,5-a]pyrimidin-3-yl)methyl)-1-(tetrahydro-2H-pyran-4-yl)ethan-1-amine]	500 to 5000 nM	< 500 nM
Cc1nn2c([C@@H]3CCCN(Cc4ccc(Cl)cc4)C3)ccnc2c1CN(C)CC1CC1 [Example 227, (R)-1-(7-(1-(4-Chlorobenzyl)piperidin-3-yl)-2-methylpyrazolo[1,5-a]pyrimidin-3-yl)-N-(cyclopropylmethyl)-N-methylmethanamine]	> 5000 nM	< 500 nM
Cc1nn2c([C@H]3CCCN(Cc4ccc(Cl)cc4)C3)ccnc2c1CN(C)CC1CC1 [Example 228, (S)-1-(7-(1-(4-chlorobenzyl)piperidin-3-yl)-2-methylpyrazolo[1,5-a]pyrimidin-3-yl)-N-(cyclopropylmethyl)-N-methylmethanamine]	< 500 nM	< 500 nM
Cc1nn2c(C3CCCN(Cc4ccc(Cl)cc4)C3)ccnc2c1CN(C)Cc1c(F)cccc1F (stereo not drawn) [Example 229, 1-(7-(1-(4-Chlorobenzyl)piperidin-3-yl)-2-methylpyrazolo[1,5-a]pyrimidin-3-yl)-N-(2,6-difluorobenzyl)-N-methylmethanamine]	500 to 5000 nM	500 to 1000 nM
Cc1nn2c(C3CCCN(Cc4ccc(Cl)cc4)C3)ccnc2c1CN(C)Cc1ccc(CO)cc1 (stereo not drawn) [Example 230, (4-((((7-(1-(4-Chlorobenzyl)piperidin-3-yl)-2-methylpyrazolo[1,5-a]pyrimidin-3-yl)methyl)(methyl)amino)methyl)phenyl)methanol]	500 to 5000 nM	< 500 nM
Cc1nn2c(C3CCCN(Cc4ccc(Cl)cc4)C3)ccnc2c1CN(C)CC1CCOCC1 (stereo not drawn) [Example 231, 1-(7-(1-(4-Chlorobenzyl)piperidin-3-yl)-2-methylpyrazolo[1,5-a]pyrimidin-3-yl)-N-methyl-N-((tetrahydro-2H-pyran-4-yl)methyl)methanamine]	500 to 5000 nM	< 500 nM
Cc1nn2c(C3CCCN(Cc4ccc(Cl)cc4)C3)ccnc2c1CN(CC1CCOCC1)C(C)C (stereo not drawn) [Example 232, N-((7-(1-(4-Chlorobenzyl)piperidin-3-yl)-2-methylpyrazolo[1,5-a]pyrimidin-3-yl)methyl)-N-((tetrahydro-2H-pyran-4-yl)methyl)propan-2-amine]	> 5000 nM	< 500 nM
Cc1nn2c(C3CCCN(Cc4ccccc4)C3)ccnc2c1CN(CC1C[C@@H](C)O[C@@H](C)C1)C(C)C (stereo partly drawn) [Example 233, N-((7-(1-Benzylpiperidin-3-yl)-2-methylpyrazolo[1,5-a]pyrimidin-3-yl)methyl)-N-(((2R,6S)-2,6-dimethyltetrahydro-2H-pyran-4-yl)methyl)propan-2-amine]	> 5000 nM	500 to 1000 nM
